Test results reported in US20070184102A1, “LATEX OR PSEUDOLATEX COMPOSITIONS, COATINGS AND COATING PROCESSES” (priority 2006, published 2007).
Read-outs that look alike come from different tables or passages of the source.

Assays:
[1] = Protocol: (§1) Aquacoat® ECD was plasticized by stirring with triethyl citrate for 24 hours prior to addition of permeation enhancing agent. The dispersion stability was checked by optical microscopy for aggregation, coagulation or flocculation. Films were cast on Teflon® and cured for 24 hours at 60° C. The cast films were assessed in terms of appearance, transparency, inhomogeneities, or cracks and mechanical properties (semi-quantitative brittleness or flexibility).
[2] = Assessment of cast mixed films (appearance, transparency, inhomogeneities, cracks, brittleness or flexibility); format: physicochemical; details: films cast on Teflon, cured 24 hours at 60° C.
Protocol: as §1

[3] = not told, pH 7.4
[4] = 10 to 30% w/w with respect to Aquacoat ECD solids, Aquacoat ECD plasticized with 25% w/w triethyl citrate

Row | Compound | Compatibility with / destabilisation of Aquacoat ECD dispersion [1] | Properties of cast mixed films with Aquacoat ECD [2] | further results
1 | O=P([O-])([O-])O.[Na+].[Na+] [Disodium Hydrogen Phosphate] | – | inhomogenous films | Compatibility with / destabilisation of Aquacoat ECD dispersion [1, 4]: compatible
2 | [Cl-].[Na+] [Sodium chloride, Sodium Chloride, reference compound] | – | inhomogenous films, with recrystallisation and cracking | Compatibility with / destabilisation of Aquacoat ECD dispersion [1, 4]: destabilized
3 | OC[C@@H](O)[C@@H](O)[C@H](O)[C@H](O)CO [mannitol, Mannitol] | compatible | good films | –
4 | OC[C@@H](O)[C@@H](O)[C@H](O)[C@@H](O)CO [sorbitol, Sorbitol] | compatible | good films | –
5 | Hydroxypropylmethylcellulose [reference compound] | destabilized | – | –
6 | Lambda carrageenan [Viscarin® GP209] | viscous stable dispersions | – | Stability of the aqueous ethylcellulose coating dispersions in presence of the additive [1]: stable
7 | Microcrystalline cellulose-carrageenan [LustreClear® LC103] | very viscous destabilised | – | –
8 | Polyvinyl acetate [Kollicoat® SR 30 D] | compatible | – | –

Continued, in another order:

Row | Compatibility with / destabilisation of Aquacoat ECD dispersion [1] | Compound | Properties of cast mixed films with Aquacoat ECD [2] | further results
9 | compatible | OC[C@H]1O[C@@](CO)(O[C@H]2O[C@H](CO)[C@@H](O)[C@H](O)[C@H]2O)[C@@H](O)[C@@H]1O [Sucrose] | good films | –
10 | compatible | OC[C@H]1O[C@@H](O[C@H]2[C@H](O)[C@@H](O)C(O)O[C@@H]2CO)[C@H](O)[C@@H](O)[C@H]1O (stereo partly drawn) [lactose, Lactose] | good films | –
11 | not destabilized | Iota carrageenan [Gelcarin® GP379] | – | –
12 | viscous stable dispersions | Kappa carrageenan [Gelcarin® GP911] | – | –
13 | compatible in dispersion | Polyvinyl alcohol-polyethylene glycol graft copolymer [Kollicoat® IR] | – | Effect on water permeability (diffusion coefficient of water) of Aquacoat ECD-based films [3]: significantly increased; Stability of the aqueous ethylcellulose coating dispersions in presence of the additive [1]: did not affect
14 | destabilized | Sodium Carboxymethylcellulose [reference compound] | – | –
15 | compatible | Starch | – | –
